From patent US20120263794A1, “TREATMENT OF EYE DISEASES USING ENCAPSULATED CELLS ENCODING AND SECRETING A NEUROPROTECTIVE FACTOR AND/OR AN ANTI-ANGIOGENIC FACTOR” (BIOCOMPATIBLE UK LTD., priority 2009, published 2012)
Ends that are not written are not given here.

Legend:
Rin-5F cells = assay: Anti-apoptotic efficacy, cycloheximid-induced apoptosis, AlamarBlue; type: cell-based, rat; settings: 24 hours
Protocol: Apoptosis is induced in RIN-5F cells by addition of the protein biosynthesis inhibitor cycloheximid (CHX) in a final of 10 μg/ml and 100 μg/ml respectively.
40.000 Rin-5F cells were seeded per 96 well and cultivated for 2 days in RPMI supplemented with 1% L-Glutamin and 10% fetal calf serum. […] After 24 hours cell viability is quantified using AlamarBlue.

DPP-IV = target: T1, DPP-IV (Homo sapiens, UniProt P27487); assay: In vitro human plasma stability of GLP-1CM peptides; type: in vitro ADME; settings: 20 ng/ml, 37° C., 5% CO2, 3 hours, in contrast to native GLP-1(7-37)
T1 construct: incubated at concentrations of 20 ng/ml with human plasma; from tissue; host or cells: human plasma
Protocol: Synthetic GLP-1 peptides (SEQ ID NO:1syn, SEQ ID SEQ ID NO:7rec, SEQ ID NO:8syn) were incubated at concentrations of 20 ng/ml with human plasma at 37° C. and 5% CO2 for 3 hours. Dipeptidylpeptidase activity of the plasma was inhibited by a DPP-IV inhibitor (#DPP4, Biotrend).

T1 sequence (P27487 whole entry): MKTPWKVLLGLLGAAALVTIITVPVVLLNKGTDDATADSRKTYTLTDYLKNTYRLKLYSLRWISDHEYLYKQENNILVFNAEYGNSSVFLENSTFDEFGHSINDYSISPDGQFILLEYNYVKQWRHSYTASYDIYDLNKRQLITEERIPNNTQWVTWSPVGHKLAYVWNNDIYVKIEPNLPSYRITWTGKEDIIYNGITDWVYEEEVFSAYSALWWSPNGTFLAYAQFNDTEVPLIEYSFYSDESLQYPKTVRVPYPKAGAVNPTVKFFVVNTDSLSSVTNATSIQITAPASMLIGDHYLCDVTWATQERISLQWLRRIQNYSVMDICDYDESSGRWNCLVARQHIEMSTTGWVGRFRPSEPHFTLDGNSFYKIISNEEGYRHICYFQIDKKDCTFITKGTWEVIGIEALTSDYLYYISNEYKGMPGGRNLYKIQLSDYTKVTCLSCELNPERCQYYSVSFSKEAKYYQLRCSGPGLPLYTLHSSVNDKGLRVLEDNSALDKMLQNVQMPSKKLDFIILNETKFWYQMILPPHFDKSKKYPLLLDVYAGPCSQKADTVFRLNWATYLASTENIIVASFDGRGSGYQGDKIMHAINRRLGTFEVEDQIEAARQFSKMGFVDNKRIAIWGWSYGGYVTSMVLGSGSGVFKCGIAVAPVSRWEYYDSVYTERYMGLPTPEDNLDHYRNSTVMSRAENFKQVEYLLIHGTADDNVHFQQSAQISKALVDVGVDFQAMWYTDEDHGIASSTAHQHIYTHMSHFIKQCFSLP

| Molecule | cell viability (Rin-5F cells; different concentrations, CHX 10 μg/ml and 100 μg/ml) | anti-apoptotic effect (Rin-5F cells; in the presence of 1 nM, cycloheximid, serumfree, p<0.01) | stability in human plasma (active GLP, ELISA) (DPP-IV) |
| --- | --- | --- | --- |
| CM1: C-terminally elongated dimeric GLP-1 fusion peptide GLP-1 (7-37)-IP2-GLP-1 (7-37) produced by construct #217 | significant (p<0.01) increase of cell viability | significant anti-apoptotic effect | – |
| GLP-1 (7-37)-IP2-RR-GLP1(7-37) [SEQ ID NO:6] | – | – | significantly stabilized |
| HAEGTFTSDVSSYLEGQAAKEFIAWLVKGRGRRDFPEEVAIAEELG [SEQ ID NO:8, GLP-1 (7-37)-IP2] | – | – | significantly stabilized |
| GLP-1 (7-37)-IP2-RR-GLP2 (protein, Description of sequence SEQ ID No 7 (ID7rec, CM2) corresponds to GLP-1(7-37)-IP2-RR-GLP2, 83 aa, 9,4 kD, 83 aa, recombinant) HAEGTFTSDVSSYLEGQAAKEFIAWLVKGRGRRDFPEEVAIAEELGRRHADGSFSDEMSTILDNLATRDFINWLIQTKITDKK | – | – | significantly stabilized |
